Measurements: patent US20090131508A1, “Use of 2-Oxo-1-Pyrrolidone Derivatives for the Preparation of a Drug” (UCB PHARMA, S.A., priority 2005, published 2009)
Entries after “also recorded” stand apart in the source; their conditions may differ.

Legend:
DMCM-induced seizures = assay: threshold for DMCM-induced seizures in mice; format: in vivo, male NMRI mice; conditions: for Clonic convulsion DMCM threshold dose / First myoclonic jerks DMCM threshold dose: mean ± S.D.
Procedure: The effect of Brivaracetam on the threshold for DMCM-induced seizures is evaluated in male NMRI mice (25-35 g; N=10 per group). The threshold for induction of myoclonic jerks and clonic convulsions in all four extremities is determined by infusing a concentration of 0.5 mg/ml DMCM into the tail vein of unrestrained freely moving mice at a rate of 0.25 ml/min with an infusion pump and a maximum duration of infusion of 2 min. Saline or different doses of Brivaracetam are administered 30 min before DMCM infusion.

[1] = tested on: photoparoxysmal EEG response (PPR); assay: photoparoxysmal EEG response (PPR) study in photosensitive epileptic subjects; format: in vivo, human (Caucasian subjects with photosensitive epilepsy); conditions: for Duration of response, Median (Range) / Time to first response, Median (Range): eye-closure condition, response = SPR change of at least 3 frequency steps
Procedure: The aim of the placebo-controlled, single blind, multi-centre study is to explore the photoparoxysmal EEG (Electroencephalogram) response (PPR) in photosensitive epileptic subjects after one single oral dose (10, 20, 40 and 80 mg) of brivaracetam (BRV).
In the study, nineteen Caucasian subjects with photosensitive epilepsy (15 females, 4 males) with stable PPR in at least one eye condition (eyes open, eyes closed, eye closure) are enrolled. During a 3-day period, subjects underwent standardized intermittent photic stimulation (IPS) at different frequencies to define the standard photosensitivity range (SPR) in frequency steps per subject at fixed time points over the day: predose (−0.5 h) and postdose (1, 2, 4, 6, 8, 24, 28, 32, 48, and 72 h). After the placebo baseline day (day 1), single oral doses of BRV are given, starting at 80 mg, with subsequent lowering or increasing of the dose depending on the results per 4 subjects.
A total of 18 subjects are evaluable. One subject appeared to be no longer sensitive on the baseline day and is therefore not evaluable. Under placebo administration almost no SPR changes from pre-dose in “eye-closure” condition are observed. Important SPR changes or even complete abolishment of the photosensitivity windows are observed after BRV administration at all tested doses.
Descriptive statistics (N, Median (range)) for time to first response and duration of response in “eye-closure” condition are given in the Table 3 below. Response is defined as a SPR change of at least 3 frequency steps.

kindled seizures = assay: amygdala kindling in rats; format: in vivo, male Sprague-Dawley rats; conditions: i.p. -60 min, 95% confidence interval in parentheses
Procedure: The effect of brivaracetam on kindled seizures is evaluated in male Sprague-Dawley rats (250-350 g) implanted with a bipolar stimulation/recording electrode into the right basolateral amygdala [AP-2.3, L-4.8, V-8.5 (Paxinos and Watson, 1982)], under pentobarbital anaesthesia. Kindling is induced by once daily stimulation, 5 days per week, with 500 μA monophasic square wave pulses, 50 Hz for 1 s (Löscher et al., 1986). The animals are considered kindled after the appearance of at least 10 consecutive stage 4 or 5 seizures according to the scale of Racine (Racine, 1972). Fully kindled rats (N=8 per group) are stimulated once with the same stimulation parameters as above after administration of saline (i.p., −60 min).
This procedure is repeated two days later, after pre-treatment with either saline or different doses of Brivaracetam (i.p., −60 min).
The behavioural effect of stimulation is graded according to the scale of Racine and the proportion of rats protected against generalised motor seizures (stage <3) is recorded.

[2] = 80 mg single oral dose, listed as BRV
[3] = all single doses (10, 20, 40, and 80 mg)

SMILES: CCC[C@@H]1CC(=O)N([C@@H](CC)C(N)=O)C1 [Brivaracetam, (2S)-2-[(4R)-2-oxo-4-propylpyrrolidinyl]butanamide]
- Clonic convulsion DMCM threshold, change vs control (DMCM-induced seizures; Brivaracetam 2.1 mg/kg IP): +46%
- First myoclonic jerks DMCM threshold, change vs control (DMCM-induced seizures; Brivaracetam 2.1 mg/kg IP): +6%
- Clonic convulsion DMCM threshold dose (DMCM-induced seizures; Brivaracetam 2.1 mg/kg IP): 3.34 ± 0.93 mg/kg
- First myoclonic jerks DMCM threshold dose (DMCM-induced seizures; Brivaracetam 2.1 mg/kg IP): 1.05 ± 0.14 mg/kg
- Clonic convulsion DMCM threshold, change vs control (DMCM-induced seizures; Brivaracetam 6.8 mg/kg IP): +104%
- First myoclonic jerks DMCM threshold, change vs control (DMCM-induced seizures; Brivaracetam 6.8 mg/kg IP): +11%
- Clonic convulsion DMCM threshold dose (DMCM-induced seizures; Brivaracetam 6.8 mg/kg IP): 4.68 ± 2.21 mg/kg
- First myoclonic jerks DMCM threshold dose (DMCM-induced seizures; Brivaracetam 6.8 mg/kg IP): 1.10 ± 0.16 mg/kg
- Clonic convulsion DMCM threshold, change vs control (DMCM-induced seizures; Brivaracetam 21.2 mg/kg IP): +183%
- First myoclonic jerks DMCM threshold, change vs control (DMCM-induced seizures; Brivaracetam 21.2 mg/kg IP): +26%
- Clonic convulsion DMCM threshold dose (DMCM-induced seizures; Brivaracetam 21.2 mg/kg IP): 6.47 ± 2.82 mg/kg
- First myoclonic jerks DMCM threshold dose (DMCM-induced seizures; Brivaracetam 21.2 mg/kg IP): 1.25 ± 0.14 mg/kg
- Clonic convulsion DMCM threshold, change vs control (DMCM-induced seizures; Brivaracetam 67.9 mg/kg IP): +182%
- First myoclonic jerks DMCM threshold, change vs control (DMCM-induced seizures; Brivaracetam 67.9 mg/kg IP): +32%
- Clonic convulsion DMCM threshold dose (DMCM-induced seizures; Brivaracetam 67.9 mg/kg IP): 6.46 ± 3.16 mg/kg
- First myoclonic jerks DMCM threshold dose (DMCM-induced seizures; Brivaracetam 67.9 mg/kg IP): 1.31 ± 0.17 mg/kg
- Clonic convulsion DMCM threshold, change vs control (DMCM-induced seizures; Brivaracetam 212.3 mg/kg IP): +213%
- First myoclonic jerks DMCM threshold, change vs control (DMCM-induced seizures; Brivaracetam 212.3 mg/kg IP): +36%
- Clonic convulsion DMCM threshold dose (DMCM-induced seizures; Brivaracetam 212.3 mg/kg IP): 7.16 ± 2.98 mg/kg
- First myoclonic jerks DMCM threshold dose (DMCM-induced seizures; Brivaracetam 212.3 mg/kg IP): 1.35 ± 0.17 mg/kg
- Time to maximal reduction in SPR ([1]; 10 mg single oral dose): 1.5 h
- Duration of response, Median (Range) ([1]; 10 mg single oral dose): 29.3 (7.5; 31.5) h
- Time to first response, Median (Range) ([1]; 10 mg single oral dose): 0.5 (0.5; 1.0) h
- Patients with abolishment of EEG response ([1]; 10 mg single oral dose, reduction in the fourth patient): three out of four
- Time to maximal reduction in SPR ([1]; 20 mg single oral dose): 1.0 h
- Duration of response, Median (Range) ([1]; 20 mg single oral dose): 27.5 (23.0; 31.5) h
- Time to first response, Median (Range) ([1]; 20 mg single oral dose): 0.5 (0.5; 1.0) h
- EEG response in all (evaluable) subjects ([1]; 20 mg single oral dose, listed as BRV): abolished; also recorded: complete suppression
- Time to maximal reduction in SPR ([1]; 40 mg single oral dose): 1.0 h
- Duration of response, Median (Range) ([1]; 40 mg single oral dose): 27.0 (23.5; 47.5) h
- Time to first response, Median (Range) ([1]; 40 mg single oral dose): 0.5 (0.5; 1.0) h
- Time to maximal reduction in SPR ([1]; 80 mg single oral dose): 0.5 h
- Duration of response, Median (Range) ([1]; 80 mg single oral dose): 59.5 (27.5; 71.5) h
- Time to first response, Median (Range) ([1]; 80 mg single oral dose): 0.5 (0.5; 0.5) h
- Duration of response, Median (Range) [1, 2]: 59.5 h
- EEG response in all (evaluable) subjects [1, 2]: abolished; also recorded: complete suppression
- Median duration of response ([1]; after 10, 20, or 40 mg single oral dose): approximately 28 hours
- Median time to first response ([1]; all doses (10, 20, 40, 80 mg single oral dose)): 0.5 h
- Safety and tolerability ([1]; all doses (10, 20, 40, 80 mg single oral dose), human subjects): safe and well tolerated
- Subjects with abolished photoparoxysmal EEG response [1, 3]: 78%
- Subjects with reduced photoparoxysmal EEG response [1, 3]: 94%
- Protective effect ED50 value, secondary generalised seizures (kindled seizures): 44 (24-84) mg/kg i.p.
